Where two headings read alike, the source gives them in different places.
Columns and labels:
[1] = system: A2 adenosine receptors; conditions: background statement; cited from earlier work
[2] = system: A1 adenosine receptors; conditions: background statement; cited from earlier work
[3] = biological target: T1, A2 adenosine receptors (Rattus norvegicus, UniProt P30543); assay: Affinity for A2 adenosine receptors, [3H]-NECA binding to Wister rat striatal membranes; conditions: for Ki: Wister rat striatal membranes, 5 nM [3H]-NECA, Cheng and Prusoff, read-out: Affinity for Adenosine Receptors A2, affinity constant (Ki)
T1 construct: evaluated using Wister rat striatal membranes; from tissue; host or cells: Wistar rat striatal membranes
Method: The affinity of the test compound for A2 receptors was also evaluated using Wister rat striatal membranes.
The selectivity for A1 and A2 receptors was obtained by calculating the ratio of the Ki value in terms of A2 receptors to that in terms of A1 receptors (A1 /A2).

[4] = system: spontaneously hypertensive rats (SHRs); assay: Effect on blood pressure and heart rate in SHR; type: in vivo, rat; conditions: for ED30: Rattus norvegicus, iv, 5 min, read-out: Blood Pressure ED30; for Heart Rate ED10: amount giving a 10 percent decrease in initial heart rate; for ED10/ED30: ratio of heart rate ED10 to blood pressure ED30 in SHR
Method: Male spontaneously hypertensive rats (SHRs) were anesthetized with urethane and α-chloralose. The blood pressure of the rats was measured with a pressure transducer through a polyethylene cannula inserted into the left carotid artery. The heart rate was monitored with a cardiotachometer triggered by the arterial pressure pulse. […] The blood pressure and the heart rate of the rats were measured 5 minutes after the respective administrations, and the maximum values thereof were determined.
Effects of the test compounds on the blood pressure and the heart rate were compared in terms of the ED30 and ED10 values.

[5] = biological target: T2, A1 adenosine receptors (Rattus norvegicus, UniProt P25099); assay: Affinity for A1 adenosine receptors, [3H]-CHA binding to Wister rat brain membranes; conditions: 2.5 nM [3H]-CHA, Cheng and Prusoff, read-out: Affinity for Adenosine Receptors A1, affinity constant (Ki)
T2 construct: evaluated using Wister rat brain membranes; from tissue; host or cells: Wistar rat brain membranes
T2 sequence (P25099 1-326): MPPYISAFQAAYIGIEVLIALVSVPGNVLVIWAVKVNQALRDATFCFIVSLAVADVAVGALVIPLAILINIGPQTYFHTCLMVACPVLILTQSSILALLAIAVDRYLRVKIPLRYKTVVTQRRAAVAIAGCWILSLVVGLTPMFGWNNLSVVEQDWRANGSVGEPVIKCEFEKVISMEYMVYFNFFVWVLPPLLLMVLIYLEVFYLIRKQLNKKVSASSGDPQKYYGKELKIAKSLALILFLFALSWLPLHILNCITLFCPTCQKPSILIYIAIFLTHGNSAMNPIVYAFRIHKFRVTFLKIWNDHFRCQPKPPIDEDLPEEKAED
Method: The affinity of the compounds of the present invention for adenosine receptors was evaluated in substantially the same manner as is described in R. F. Bruns et al., Mol. Pharmacol., 29, 331-346 (1986); R. F. Bruns et al., Proc. Natl. Acad. Sci., U.S.A., 77, 5547 (1980); and Japanese Laid-Open Patent Publications Nos. 201196/1988 and 111996/1987. […] The above-obtained data were applied to the equation of Cheng and Prusoff, presented in Biochem. Pharmacol., 22, 3099 (1973), thereby finally obtaining the affinity constants (Ki). (See "Neurotransmitter and Receptor Binding". […] Kabushiki Kaisha (Sep. 15, 1987).)

[6] = anesthetized male SHR, cumulative administration through femoral veins

T1 sequence (P30543 whole entry): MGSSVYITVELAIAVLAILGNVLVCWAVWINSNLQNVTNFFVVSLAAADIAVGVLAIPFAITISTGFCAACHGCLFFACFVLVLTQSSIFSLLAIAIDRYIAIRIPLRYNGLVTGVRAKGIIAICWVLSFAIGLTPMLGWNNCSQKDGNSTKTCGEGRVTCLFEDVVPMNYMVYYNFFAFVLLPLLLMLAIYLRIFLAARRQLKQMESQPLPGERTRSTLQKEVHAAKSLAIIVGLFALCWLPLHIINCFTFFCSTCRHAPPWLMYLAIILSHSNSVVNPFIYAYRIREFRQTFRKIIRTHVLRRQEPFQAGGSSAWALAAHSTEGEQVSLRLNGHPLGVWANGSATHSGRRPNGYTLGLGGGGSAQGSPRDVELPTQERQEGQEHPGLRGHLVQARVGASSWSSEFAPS

SMILES | affinity for A2 receptors [1] | affinity for A1 receptors [2] | Ki [3] [nM] | A1/A2 (selectivity, ratio of Ki values) ([3]; ratio of Ki for A1 receptors to Ki for A2 receptors) | ED30 ([4]; amount giving a 30 percent decrease in initial blood pressure, anesthetized male SHR, cumulative administration through femoral veins) [µg/kg] | Heart Rate ED10 [4, 6] [µg/kg] | ED10/ED30 [4] | Ki [5] [nM] | ED30 [4] [µg/kg]
CCNC(=O)[C@H]1O[C@@H](n2cnc3c(N)ncnc32)[C@H](O)[C@@H]1O [5'-N-ethylcarboxamideadenosine (NECA), 5'-N-ethylcarboxamideadenosine] | high affinity for A2 receptors | high affinity for A1 receptors |  |  |  |  |  |  | 
CCCCCCC#Cc1nc(N)c2ncn([C@@H]3O[C@H](CO)[C@@H](O)[C@H]3O)c2n1 [2-Octynyladenosine, reference compound] |  |  | 11 | 12.1 | 0.25 | 64.50 | 258 |  | 
Nc1nc(C#CCC2CCCCC2)nc2c1ncn2[C@@H]1O[C@H](CO)[C@@H](O)[C@H]1O [Compound No. 26, 2-(3-cyclohexyl-1-propynyl)adenosine] |  |  |  |  |  | > 100 | > 793 | 208 | 0.126
Nc1nc(C#CC2(O)CCCCC2)nc2c1ncn2[C@@H]1O[C@H](CO)[C@@H](O)[C@H]1O [Compound No. 29, 2-[(1-hydroxycyclohexane-1-yl)ethynyl]adenosine] |  |  |  |  |  | 3.29 | 235 | 21 | 0.014
Nc1nc(C#CC2(O)CCCCCCC2)nc2c1ncn2[C@@H]1O[C@H](CO)[C@@H](O)[C@H]1O [Compound No. 45, 2-[(1-hydroxycyclooctane-1-yl)ethynyl]adenosine] |  |  |  |  |  | 14.78 | 1231 | 56 | 0.012
Nc1nc(C#CCC2CCCC2)nc2c1ncn2[C@@H]1O[C@H](CO)[C@@H](O)[C@H]1O [Compound No. 18, 2-(3-cyclopentyl-1-propynyl)adenosine] |  |  | 2.3 |  |  | > 100 | > 1851 | 162 | 0.054
